Test results: ChEMBL document CHEMBL6177994 (J Med Chem, 2025)
Calls of active or inactive are those of the source. No cut-off for these calls is given here.

What was measured:
[1] = Drug concentration in male Balb/c nude mouse plasma xenografted with human GP2d cells at 10 mg/kg, iv administered as single dose measured after 168 hrs by LC-MS/MS analysis; format: ADME, organism-based
[2] = target: Protein cereblon/GTPase KRas (Homo sapiens) (UniProt P01116+Q96SW2); assay: PROTAC activity at CRBN/KRAS in human MKN-1 cells assessed as induction of KRAS degradation 1 nM measured after 24 hrs by immunoblot analysis; format: cell-based
[3] = Plasma protein binding in mouse at 2 uM by LC-MS/MS analysis; format: ADME, cell-free; conditions: read-out: PPB
[4] = target: Protein cereblon/GTPase KRas (Homo sapiens, UniProt P01116+Q96SW2, G12D); assay: PROTAC activity at CRBN/KRAS G12D mutant in human ASPC1 cells assessed as induction of KRAS G12D mutant degradation measured after 24 hrs by immunoblot analysis; format: cell-based
[5] = AUC (0 to t) in male Beagle dog at 1 mg/kg, iv measured up to 24 hrs by LC-MS/MS analysis; format: ADME, organism-based, Canis lupus familiaris; conditions: in vivo
[6] = Volume of distribution at steady state in male Beagle dog at 1 mg/kg, iv measured up to 24 hrs by LC-MS/MS analysis; format: ADME, organism-based, Canis lupus familiaris; conditions: in vivo, read-out: Vdss
[7] = AUC (0 to t) in male cynomolgus monkey at 1 mg/kg, iv measured up to 24 hrs by LC-MS/MS analysis; format: ADME, organism-based, Macaca fascicularis; conditions: in vivo
[8] = system: MKN-1; assay: Antiproliferative activity against human MKN-1 cells harbouring wild type KRAS assessed as inhibition of cell growth measured after 72 hrs by Cell titer glo method; format: functional, cell-based
[9] = Antitumor activity against human GP2d cells xenografted in female Balb/c nude mouse model assessed as tumor growth inhibition at 1 mg/kg, iv QW measured after 28 days relative to control; format: functional; conditions: 672 h, time 28 day, read-out: TGI
[10] = system: Protein cereblon/GTPase KRas (Homo sapiens), P01116+Q96SW2 [G12D]; assay: PROTAC activity at CRBN/KRAS G12D mutant in human ASPC1 cells assessed as induction of KRAS G12D mutant degradation at 5 nM preincubated with MRTX1133 followed by compound addition and measured after 24 hrs by Western blot analysis; format: cell-based
[11] = Drug concentration in male Balb/c nude mouse plasma xenografted with human PK-59 cells at 10 mg/kg, iv administered as single dose measured after 6 hrs by LC-MS/MS analysis; format: ADME, organism-based
[12] = Inhibition of ERK phosphorylation in human PK-59 cells harbouring KRAS G12D mutant measured after 24 hrs; format: cell-based; conditions: PK-59, 24 h
[13] = system: SNU-407; assay: Antiproliferative activity against human SNU-407 cells harbouring KRAS G12D mutant assessed as inhibition of cell growth measured after 72 hrs by Cell titer glo method; format: functional, cell-based
[14] = Volume of distribution at steady state in male ICR mouse at 1 mg/kg, iv measured up to 24 hrs by LC-MS/MS analysis; format: ADME, organism-based; conditions: in vivo, read-out: Vdss
[15] = Metabolic stability in mouse liver microsomes assessed as half life at 1 uM preincubated for 3 mins with NADPH and measured up to 60 mins by LC-MS/MS analysis; format: ADME, Microsome; conditions: time < 63 min
[16] = Clearance in male ICR mouse at 1 mg/kg, iv measured up to 24 hrs by LC-MS/MS analysis; format: ADME, organism-based; conditions: in vivo
[17] = system: SNU-407; assay: Antitumor activity against human SNU-407 cells harbouring KRAS G12D mutant xenografted in female Balb/c nude mouse model assessed as tumor regression at 1 to 10 mg/kg, iv QW administered weekly and measured after 28 days; format: functional, organism-based; conditions: dose 1-10 mg/kg, time 28.0 day
[18] = system: ASPC1; assay: Antitumor activity against human ASPC1 cells harbouring KRAS G12D mutant xenografted in female Balb/c nude mouse model assessed as tumor regression at 1 to 20 mg/kg, iv QW administered weekly and measured after 28 days; format: functional, organism-based; conditions: dose 1-20 mg/kg, time 28.0 day
[19] = system: Protein cereblon/GTPase KRas (Homo sapiens), P01116+Q96SW2 [G12D]; assay: In vivo PROTAC activity at CRBN/KRAS G12D mutant in male Balb/c nude mouse xenografted with human PK-59 cells assessed as reduction in DUSP4 level in tumor at 10 mg/kg, iv measured after 6 hrs relative to control; format: functional, organism-based; parameters: scale not given: the % may be the effect or the level left
[20] = Drug concentration in male Balb/c nude mouse tumor xenografted with human PK-59 cells at 10 mg/kg, iv administered as single dose measured after 6 hrs by LC-MS/MS analysis; format: ADME, organism-based, Neoplasm; conditions: read-out: Ct
[21] = target: Cytochrome P450 2C8 (Homo sapiens, UniProt P10632); assay: Inhibition of CYP2C8 in human liver microsomes using amodiaquine as substrate at 10 uM incubated for 20 mins in presence of NADPH by LC/MS analysis; format: ADME, Microsome
[22] = system: Protein cereblon/GTPase KRas (Homo sapiens), P01116+Q96SW2 [G12D]; assay: In vivo PROTAC activity at CRBN/KRAS G12D mutant in male Balb/c nude mouse xenografted with human PK-59 cells assessed as increase in cleaved caspase 7 level at 10 mg/kg, iv measured up to 168 hrs; format: functional, organism-based
[23] = Stability in mouse plasma assessed as half life at 1 uM measured up to 120 mins by LC-MS/MS analysis; format: ADME, cell-free
[24] = Antitumor activity against human PK-59 cells xenografted in female Balb/c nude mouse model assessed as tumor growth inhibition at 0.1 mg/kg, iv QW measured after 28 days relative to control; format: functional; conditions: PK-59, 672 h, time 28 day, read-out: TGI
[25] = Metabolic stability in mouse liver microsomes assessed as intrinsic clearance at 1 uM preincubated for 3 mins with NADPH and measured up to 60 mins by LC-MS/MS analysis; format: ADME, Microsome; conditions: time < 63 min, read-out: CLH
[26] = system: ASPC1; assay: Antiproliferative activity against human ASPC1 cells harbouring KRAS G12D mutant assessed as inhibition of cell growth measured after 72 hrs by Cell titer glo method; format: functional, cell-based; conditions: ASPC1, 72 h
[27] = system: Protein cereblon/GTPase KRas (Homo sapiens), P01116+Q96SW2 [G12D]; assay: PROTAC activity at CRBN/KRAS G12D mutant in human ASPC1 cells assessed as induction of KRAS G12D mutant degradation at 5 nM preincubated with MG132 followed by compound addition and measured after 24 hrs by Western blot analysis; format: cell-based
[28] = Antitumor activity against human PK-59 cells xenografted in female Balb/c nude mouse model assessed as tumor growth inhibition at 0.3 mg/kg, iv QW measured after 28 days relative to control; format: functional; conditions: PK-59, 672 h, time 28 day, read-out: TGI
[29] = Clearance in male Beagle dog at 1 mg/kg, iv measured up to 24 hrs by LC-MS/MS analysis; format: ADME, organism-based, Canis lupus familiaris; conditions: in vivo
[30] = system: AGS; assay: PROTAC activity at CRBN/KRAS G12D mutant in human AGS cells assessed as induction of KRAS G12D mutant degradation 0.01 to 100 nM measured after 24 hrs by immunoblot analysis; format: cell-based; conditions: dose 0.01-100 nM
[31] = Clearance in male cynomolgus monkey at 1 mg/kg, iv measured up to 24 hrs by LC-MS/MS analysis; format: ADME, organism-based, Macaca fascicularis; conditions: in vivo
[32] = system: Protein cereblon/GTPase KRas (Homo sapiens), P01116+Q96SW2 [G12D]; assay: PROTAC activity at CRBN/KRAS G12D mutant in human ASPC1 cells assessed as induction of KRAS G12D mutant degradation at 10 nM measured after 12 hrs by immunoblot analysis relative to control; format: cell-based

Sequence of Protein cereblon/GTPase KRas (Homo sapiens), P01116+Q96SW2 [G12D] (P01116 whole entry G12D): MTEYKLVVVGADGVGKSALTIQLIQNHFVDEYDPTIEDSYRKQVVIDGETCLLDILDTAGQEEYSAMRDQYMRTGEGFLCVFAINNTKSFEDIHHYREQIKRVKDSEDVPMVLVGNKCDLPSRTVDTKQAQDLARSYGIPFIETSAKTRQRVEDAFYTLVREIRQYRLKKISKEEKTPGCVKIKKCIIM
Sequence of Protein cereblon/GTPase KRas (Homo sapiens), P01116+Q96SW2 [G12D] (Q96SW2 whole entry partner): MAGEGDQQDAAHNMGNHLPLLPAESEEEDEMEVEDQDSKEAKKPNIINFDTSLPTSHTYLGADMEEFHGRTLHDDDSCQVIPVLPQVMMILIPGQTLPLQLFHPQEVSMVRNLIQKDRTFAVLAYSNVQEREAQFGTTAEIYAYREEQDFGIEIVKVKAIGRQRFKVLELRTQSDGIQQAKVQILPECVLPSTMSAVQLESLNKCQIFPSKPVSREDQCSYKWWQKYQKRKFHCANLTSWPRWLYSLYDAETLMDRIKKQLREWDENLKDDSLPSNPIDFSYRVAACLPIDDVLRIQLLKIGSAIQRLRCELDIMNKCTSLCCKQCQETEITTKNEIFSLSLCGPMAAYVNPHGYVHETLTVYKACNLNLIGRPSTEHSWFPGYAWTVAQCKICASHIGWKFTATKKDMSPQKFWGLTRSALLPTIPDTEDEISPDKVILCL
Sequence of Protein cereblon/GTPase KRas (P01116 whole entry G12D, stated change not applied): as the sequence (P01116 whole entry G12D) above
Sequence of Protein cereblon/GTPase KRas (Q96SW2 whole entry, stated change not applied): as the sequence (Q96SW2 whole entry partner) above
Sequence of Cytochrome P450 2C8 (P10632 whole entry): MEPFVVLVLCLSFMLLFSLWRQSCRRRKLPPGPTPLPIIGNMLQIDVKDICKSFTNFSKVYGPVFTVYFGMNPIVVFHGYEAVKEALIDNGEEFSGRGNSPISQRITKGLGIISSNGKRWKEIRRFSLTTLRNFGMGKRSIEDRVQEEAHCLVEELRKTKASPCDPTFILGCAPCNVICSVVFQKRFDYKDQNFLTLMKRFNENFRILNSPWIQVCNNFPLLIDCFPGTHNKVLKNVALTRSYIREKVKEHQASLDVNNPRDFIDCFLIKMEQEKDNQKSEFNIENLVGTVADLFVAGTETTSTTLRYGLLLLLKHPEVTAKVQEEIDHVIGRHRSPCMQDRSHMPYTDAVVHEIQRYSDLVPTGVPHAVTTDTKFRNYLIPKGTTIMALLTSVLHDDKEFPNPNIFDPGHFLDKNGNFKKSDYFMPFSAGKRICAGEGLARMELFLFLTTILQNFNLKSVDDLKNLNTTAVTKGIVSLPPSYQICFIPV
Sequence of Protein cereblon/GTPase KRas (Homo sapiens) (P01116 whole entry, looked up): as the sequence (P01116 whole entry G12D) above, with D12G counted along it
Sequence of Protein cereblon/GTPase KRas (Homo sapiens) (Q96SW2 whole entry, looked up): as the sequence (Q96SW2 whole entry partner) above

C#Cc1c(F)ccc2cc(O)cc(-c3ncc4c(N5CC6CCC(C5)N6)nc(OCC5(CN6CCC7(CC6)CC(N6CCC(c8cc9c(cc8F)c(N8CCC(=O)NC8=O)nn9C)CC6)C7)CC5)nc4c3F)c12
concentration at 168 h [1]: 4.1 ng/mL | Activity [2]: inactive | fraction unbound at 2 µM [3]: < 0.05 | DC50 [4]: 0.6 nM | AUC(0-t) at 24 h [5]: 0.458 µM·h | Vd [6]: 16 L/kg | AUC(0-t) at 24 h [7]: 0.836 µM·h | Activity [8]: Weak_effect; Compound Showed Weaker Potency In Antiproliferative Activity Compared To Mrtx1133 | inhibition in vivo at 1 mg/kg [9]: 74.8% | Activity [10]: Active | concentration at 6 h [11]: 270 ng/mL | IC50 [12]: 2.7 nM | Activity [13]: Active; Compound Showed Stronger Antiproliferative Activity Compared To Mrtx1133 | Vd [14]: 15.8 L/kg | half-life at 1 µM [15]: 7.22 h | clearance [16]: 39 mL/min/kg | Activity [17]: Weak_effect | Activity [18]: Weak_effect | Activity [19]: 11% | concentration at 6 h [20]: 1040 ng/g | inhibition (INH) [21]: Not_active | Activity [22]: Active | half-life at 1 µM [23]: 8.88 h | inhibition in vivo at 0.1 mg/kg [24]: 81.4% | CLint scaled at 1 µM [25]: 12.7 mL/min/kg | IC50 [26]: 4.19 nM | Activity [27]: inactive | inhibition in vivo at 0.3 mg/kg [28]: 93% | clearance [29]: 33 mL/min/kg | Activity [30]: Active | clearance [31]: 19.5 mL/min/kg | Activity [32]: 90%
